The NIST ThermoML archive (doi:10.1021/je201334p)

Experiments:
[1] = refractive index (Na D-line) (dimensionless); xn = mol fraction of the nth substance listed; settings: 101 kPa, Liquid, Standard Abbe refractometry
[2] = xn = mol fraction of the nth substance listed; settings: 101 kPa, Liquid; for speed of sound: Sing-around technique in a fixed-path interferometer; for mass density: Vibrating tube method

CCCCn1cc[n+](C)c1.O=S(=O)([O-])C(F)(F)F [1-butyl-3-methylimidazolium trifluoromethanesulfonate] + O
Settings	mass density, 288.15 K [kg/m3]	mass density, 298.15 K [kg/m3]	mass density, 308.15 K [kg/m3]	refractive index, 288.15 K	refractive index, 298.15 K	refractive index, 308.15 K	speed of sound, 288.15 K [m/s]	speed of sound, 298.15 K [m/s]	speed of sound, 308.15 K [m/s]
[1], x2 = 0	–	–	–	1.44032	1.43755	1.43475	–	–	–
[1], x2 = 0.1348	–	–	–	1.43903	1.43626	1.43343	–	–	–
[1], x2 = 0.2028	–	–	–	1.43815	1.43535	1.43259	–	–	–
[1], x2 = 0.2056	–	–	–	1.4381	1.4353	1.43253	–	–	–
[1], x2 = 0.3083	–	–	–	1.43654	1.43373	1.4309	–	–	–
[1], x2 = 0.4985	–	–	–	1.43224	1.4294	1.42655	–	–	–
[1], x2 = 0.6062	–	–	–	1.42835	1.42546	1.42268	–	–	–
[1], x2 = 0.7015	–	–	–	1.42301	1.42021	1.41759	–	–	–
[1], x2 = 0.8064	–	–	–	1.41332	1.41072	1.40803	–	–	–
[1], x2 = 0.8998	–	–	–	1.39564	1.39323	1.39103	–	–	–
[1], x2 = 0.9309	–	–	–	1.38516	1.3829	1.38091	–	–	–
[1], x2 = 0.9548	–	–	–	1.37365	1.37157	1.36969	–	–	–
[2], x2 = 0	1307.5	1299.55	1291.62	–	–	–	1414.3	1391.4	1369.1
[2], x2 = 0.1348	1303.64	1295.68	1287.74	–	–	–	1419.7	1396.7	1374.8
[2], x2 = 0.2028	1301.3	1293.3	1285.33	–	–	–	1422.9	1400.2	1378.1
[2], x2 = 0.2056	1301.2	1293.22	1285.23	–	–	–	1423.2	1400.9	1379.4
[2], x2 = 0.3083	1296.7	1288.66	1280.65	–	–	–	1429.3	1406.7	1384.6
[2], x2 = 0.4985	1284.57	1276.45	1268.32	–	–	–	1445	1422.8	1400.9
[2], x2 = 0.6062	1273.42	1265.25	1257.08	–	–	–	1458	1436.4	1414.8
[2], x2 = 0.7015	1258.59	1250.44	1242.22	–	–	–	1473.8	1453.1	1432
[2], x2 = 0.8064	1231.3	1223.33	1215.23	–	–	–	1496.3	1478.8	1460
[2], x2 = 0.8998	1180.1	1172.98	1165.56	–	–	–	1523.9	1513.4	1500.5
[2], x2 = 0.9309	1149.84	1143.39	1136.56	–	–	–	1533.1	1527.6	1519.2
[2], x2 = 0.9548	1116.26	1110.62	1104.51	–	–	–	1540	1540.1	1536.7
